For this assay, the target named is human M3 muscarinic acetylcholine receptor (hM3) (Homo sapiens, UniProt P20309). Kind of assay: inhibition of [3H]NMS binding, intact CHO cells. Type of assay: cell-based.

Structures are written as SMILES. pIC50: −log10 of the molar value.

Chain of human M3 muscarinic acetylcholine receptor (hM3) (P20309 whole entry): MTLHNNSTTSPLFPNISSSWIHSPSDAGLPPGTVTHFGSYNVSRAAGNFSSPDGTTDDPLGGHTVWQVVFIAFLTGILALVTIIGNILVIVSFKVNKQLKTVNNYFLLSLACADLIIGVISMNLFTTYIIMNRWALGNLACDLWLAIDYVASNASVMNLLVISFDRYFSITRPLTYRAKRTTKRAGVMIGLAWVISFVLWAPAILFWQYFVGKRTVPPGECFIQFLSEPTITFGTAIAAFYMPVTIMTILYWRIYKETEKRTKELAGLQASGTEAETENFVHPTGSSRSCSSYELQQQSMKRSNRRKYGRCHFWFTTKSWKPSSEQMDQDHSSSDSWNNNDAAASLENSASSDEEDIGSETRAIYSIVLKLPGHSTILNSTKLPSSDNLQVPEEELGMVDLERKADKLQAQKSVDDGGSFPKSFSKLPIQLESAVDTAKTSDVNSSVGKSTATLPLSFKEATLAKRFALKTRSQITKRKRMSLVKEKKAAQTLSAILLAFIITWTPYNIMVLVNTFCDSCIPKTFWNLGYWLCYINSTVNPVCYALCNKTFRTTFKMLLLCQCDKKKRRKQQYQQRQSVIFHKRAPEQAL

In the case of `CCCCCCOc1nsnc1C1=CCCN(C)C1` [Xanomeline], the pIC50 – broadly, the negative decadic logarithm of the IC50, by convention in mol/L – is 7.10.

(Values after paper PMC3752336 (Neurochemical research, 2008).)
